Laboratory results published in paper PMC9019904, “AD Informer Set: Chemical tools to facilitate Alzheimer's disease drug discovery” (Alzheimer's & Dementia : Translational Research & Clinical …, 2022).
Values after ≈ are worked out from the molar mass of the structure shown. Like-named read-outs stand apart in the source and are kept apart here.

Experiments:
[1] = test system: protein product expressed by the gene target; conditions: cited from earlier work
[2] = test system: BV2 (mouse microglia) cell line; test: pHrodo-myelin phagocytosis/cell viability high content imaging assay: phagocytosis signal; type: cell-based
Outline: (§1)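 High content imaging, roughly 22 hours post pHrodo-myelin addition, recorded phagocytosis signal alongside viability in microglial lines BV2 (mouse) and HMC3 (human). Apoptosis tracked through intensity rise (early) and fall (later) among three extracted measurements.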

[3] = physchem; conditions: pH 7.4, aqueous buffer, kinetic from dmso stock
[4] = test system: cellular system; conditions: cited from earlier work
[5] = test system: BV2 (mouse microglia) cell line; test: pHrodo-myelin phagocytosis/cell viability high content imaging assay: viability (cell count, nuclear area, nuclear intensity)
Outline: (§2)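 Viability was read as total cell count per well by high-content imaging, with mean average nuclear intensity per cell profiling apoptosis (rise early, fall late). Compounds were given at 10 μM for 48 h, pHrodo-myelin being added for the final 20 h. Values are means of two points as % untreated control.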

[6] = test system: HMC3 (human microglia) cell line; test: as above
Outline: as §2

[7] = test system: HMC3 (human microglia) cell line; test: pHrodo-myelin phagocytosis/cell viability high content imaging assay: phagocytosis signal; type: cell-based
Outline: as §1

[8] = Kinetic solubility in aqueous buffer pH 7.4 by total chemiluminescent nitrogen determination (Analiza); conditions: aqueous buffer, pH 7.4, aqueous buffer, kinetic from dmso stock
[9] = published cellular activity at 10 μM
[10] = BV2 cells, 10 μM, cell count <70% control
[11] = BV2, compound 10 uM, 48 hours treatment
[12] = HMC3, compound 10 uM, 48 hours treatment

CN(C)CC1CCOC1(c1ccccc1)c1ccccc1.Cl (stereo not drawn) [AN2/AVex-73 HCl (Blarcamesine)]
Reported on-target biochemical potency (nM) ([1]; SIG-1R (genes listed: SIG-1R and CHRM2), ref PubMed 20829307, 29127580): SIG-1R = 860 nM
Stimulation of mouse microglial phagocytosis at 10 μM (>150% control) ([2]; BV2 cells, 10 μM): Y (The compound was found to stimulate phagocytosis (response threshold: >150% control) when murine immortalized microglial cells were dosed at 10 μM (Y: yes))
solubility kinetic [3]: 174 µM
Reported as cell active (<10 μM) [4, 9]: Y (Published data supports that the compound is active in a cellular system when dosed at 10 μM (Y/N))

CC(C)CCOc1ccc(N)cc1 [CP-24879]
Reported on-target biochemical potency ([1]; gene target FADS1 and FADS2, ref PubMed 11939906, 27832159, 9605428): 3400 nM
solubility kinetic [3]: 56.8 µM (≈ 10.2 µg/mL)

CN(C)CCCN1c2ccccc2Sc2ccc(Cl)cc21 [Chlorpromazine]
Reported on-target biochemical potency [1]: >1000 nM
solubility kinetic [3]: 102 µM (≈ 32.6 µg/mL)
Reported as cell active (<10 μM) [4]: N

Clc1ccccc1C(c1ccccc1)(c1ccccc1)n1ccnc1 [Clotrimazole]
Reported on-target biochemical potency ([1]; gene target CYP19A1, ref Probe Miner): 1.8 nM
Mouse microglial cytotoxicity at 10 μM (<70% control) ([5]; BV2, 10 μM): Y (The compound was found to be cytotoxic (cell count threshold: <70% control) when murine immortalized microglial cells were dosed at 10 μM (Y: yes))
solubility kinetic [3]: 4.2 µM (≈ 1.45 µg/mL)

CCc1cnn2c(NCc3ccc[n+]([O-])c3)cc(N3CCCC[C@H]3CCO)nc12 [Dinaciclib]
Reported on-target biochemical potency ([1]; gene target CDK9, ref PubMed 20663931, 25289887, 21768779): 4 nM
Mouse microglial cytotoxicity at 10 μM (<70% control) ([5]; BV2, 10 μM): Y (The compound was found to be cytotoxic (cell count threshold: <70% control) when murine immortalized microglial cells were dosed at 10 μM (Y: yes))
Human microglial cytotoxicity at 10 μM (<70% control) ([6]; HMC3, 10 μM): Y (The compound was found to be cytotoxic (cell count threshold: <70% control) when human immortalized microglial cells were dosed at 10 μM (Y: yes))
Inhibition of mouse microglial phagocytosis at 10 μM (<70% control) ([2]; BV2, 10 μM): Y (The compound was found to inhibit phagocytosis (response threshold: <70% control) when murine immortalized microglial cells were dosed at 10 μM (Y: yes))
Stimulation of human microglial phagocytosis at 10 μM (>150% control) ([7]; HMC3, 10 μM): Y (The compound was found to stimulate phagocytosis (response threshold: >150% control) when human immortalized microglial cells were dosed at 10 μM (Y: yes))
solubility kinetic [3]: 143 µM (≈ 56.8 µg/mL)

Cl.NCCOCCOCCNC(=O)Cc1ccc(Nc2nc(NCc3ccc(F)cc3)nc(NCC3CCCCC3)n2)cc1 [ENOblock (AP-III-a4)]
Reported on-target biochemical potency ([1]; gene target ENO1, ref Probe Miner, PubMed 30679508, 28272459): 576 nM
Mouse microglial cytotoxicity at 10 μM (<70% control) ([5]; BV2, 10 μM): Y (The compound was found to be cytotoxic (cell count threshold: <70% control) when murine immortalized microglial cells were dosed at 10 μM (Y: yes))
Stimulation of mouse microglial phagocytosis at 10 μM (>150% control) ([2]; BV2, 10 μM): Y (The compound was found to stimulate phagocytosis (response threshold: >150% control) when murine immortalized microglial cells were dosed at 10 μM (Y: yes))
Inhibition of human microglial phagocytosis at 10 μM (<70% control) ([7]; HMC3, 10 μM): Y (The compound was found to inhibit phagocytosis (response threshold: <70% control) when human immortalized microglial cells were dosed at 10 μM (Y: yes))
solubility kinetic [3]: 76.8 µM

c1cn2cc(-c3ccc4cn[nH]c4c3)nc(Nc3ccc(N4CCOCC4)cc3)c2n1 [Entospletinib (GS-9973)]
Reported on-target biochemical potency [1]: 7.7 nM
Mouse microglial cytotoxicity at 10 μM (<70% control) [5, 10]: Y (The compound was found to be cytotoxic (cell count threshold: <70% control) when murine immortalized microglial cells were dosed at 10 μM (Y: yes))
Inhibition of mouse microglial phagocytosis at 10 μM (<70% control) ([2]; BV2 cells, 10 μM): Y (The compound was found to inhibit phagocytosis (response threshold: <70% control) when murine immortalized microglial cells were dosed at 10 μM (Y: yes))
Inhibition of human microglial phagocytosis at 10 μM (<70% control) ([7]; HMC3 cells, 10 μM): Y (The compound was found to inhibit phagocytosis (response threshold: <70% control) when human immortalized microglial cells were dosed at 10 μM (Y: yes))
solubility kinetic [3]: 0.5 µM (≈ 0.206 µg/mL)
Reported as cell active (<10 μM) [4, 9]: Y (Published data supports that the compound is active in a cellular system when dosed at 10 μM (Y/N))

CNC(=O)[C@H](Cc1c[nH]c2ccccc12)NC(=O)[C@@H](CC(=O)NO)CC(C)C [Ilomastat]
Reported on-target biochemical potency ([1]; target gene MMP17, ref Probe Miner, PubMed 33513143): 3.4 nM
solubility kinetic [3]: 104 µM (≈ 40.2 µg/mL)

CC(=O)N1CCN(c2ccc(OCC3COC(Cn4ccnc4)(c4ccc(Cl)cc4Cl)O3)cc2)CC1 (stereo not drawn) [Ketoconazole]
Reported on-target biochemical potency [1]: 64000 nM
solubility kinetic [8]: 120 µM (≈ 63.6 µg/mL)
Stimulation of mouse microglial phagocytosis at 10 μM (>150% control) ([2]; BV2, 10 μM): Y (The compound was found to stimulate phagocytosis (response threshold: >150% control) when murine immortalized microglial cells were dosed at 10 μM (Y: yes))
Reported as cell active (<10 μM) [4]: Y (key: Published data supports that the compound is active in a cellular system when dosed at 10 μM (Y/N); Published data supports that the compound is active in a cellular system when dosed at 10 μM (Y/N))

COCC(=O)O[C@]1(CCN(C)CCCc2nc3ccccc3[nH]2)CCc2cc(F)ccc2[C@@H]1C(C)C [Mibefradil]
Reported on-target biochemical potency [1]: 980 nM
solubility kinetic [8]: 128 µM (≈ 63.4 µg/mL)
Mouse microglial cytotoxicity at 10 μM (<70% control) [5, 10]: Y (The compound was found to be cytotoxic (cell count threshold: <70% control) when murine immortalized microglial cells were dosed at 10 μM (Y: yes))
Inhibition of mouse microglial phagocytosis at 10 μM (<70% control) ([2]; BV2 cells, 10 μM): Y (The compound was found to inhibit phagocytosis (response threshold: <70% control) when murine immortalized microglial cells were dosed at 10 μM (Y: yes))
Inhibition of human microglial phagocytosis at 10 μM (<70% control) ([7]; HMC3 cells, 10 μM): Y (The compound was found to inhibit phagocytosis (response threshold: <70% control) when human immortalized microglial cells were dosed at 10 μM (Y: yes))
Reported as cell active (<10 μM) [4]: Y (key: Published data supports that the compound is active in a cellular system when dosed at 10 μM (Y/N); Published data supports that the compound is active in a cellular system when dosed at 10 μM (Y/N))

CCN(C)C(=O)Oc1cccc([C@H](C)N(C)C)c1 [Rivastigmine]
Reported on-target biochemical potency (nM): BChE ([1]; gene target BCHE, ref PubMed 23469045, 12166941): 37 nM
Stimulation of mouse microglial phagocytosis at 10 μM (>150% control) ([2]; BV2, 10 μM): Y (The compound was found to stimulate phagocytosis (response threshold: >150% control) when murine immortalized microglial cells were dosed at 10 μM (Y: yes))
solubility kinetic [3]: 160 µM (≈ 40 µg/mL)

COc1ccc2[nH]c([S+]([O-])Cc3ncc(C)c(OC)c3C)nc2n1 (stereo not drawn) [Tenatoprazole]
Reported on-target biochemical potency ([1]; gene target DHTKD1, ref PubMed 32633484): 2700 nM
solubility kinetic [3]: 131 µM (≈ 45.4 µg/mL)

CN1CCN(CCCN2c3ccccc3Sc3ccc(C(F)(F)F)cc32)CC1 [Trifluoperazine]
Reported on-target biochemical potency [1]: 5200 nM
Mouse microglial cytotoxicity at 10 μM (<70% control) ([5]; 10 μM, BV2): Y (The compound was found to be cytotoxic (cell count threshold: <70% control) when murine immortalized microglial cells were dosed at 10 μM (Y: yes))
Inhibition of human microglial phagocytosis at 10 μM (<70% control) ([7]; 10 μM, HMC3): Y (The compound was found to inhibit phagocytosis (response threshold: <70% control) when human immortalized microglial cells were dosed at 10 μM (Y: yes))
Reported as cell active (<10 μM) [4]: Y (key: Published data supports that the compound is active in a cellular system when dosed at 10 μM (Y/N); Published data supports that the compound is active in a cellular system when dosed at 10 μM (Y/N))

O=C(Cn1cc(S(=O)(=O)N2CCCC2)ccc1=O)c1ccc(-c2cccc(C(F)(F)F)c2)cc1 [UNC8367A, reference compound]
Reported on-target biochemical potency ([1]; gene target DOCK1, ref PubMed 28467910, 29432733): 8400 nM
solubility kinetic [8]: 6.5 µM (≈ 3.19 µg/mL)
Mouse microglial cytotoxicity at 10 μM (<70% control) ([5]; BV2, 10 μM): Y (The compound was found to be cytotoxic (cell count threshold: <70% control) when murine immortalized microglial cells were dosed at 10 μM (Y: yes))
1. Cell count (% control) [5, 11]: 56.7 % control
2. Nuclear Area (% Control) [5, 11]: 109.8 % Control
3. Nuclear DNA Intensity (% control) [5, 11]: 118.7 % control
1. Cell count (% control) [6, 12]: 109.8 % control
2. Nuclear Area (% Control) [6, 12]: 95.2 % Control
3. Nuclear DNA Intensity (% control) [6, 12]: 108.6 % control
Stimulation of mouse microglial phagocytosis at 10 μM (>150% control) ([2]; BV2, 10 μM): Y (The compound was found to stimulate phagocytosis (response threshold: >150% control) when murine immortalized microglial cells were dosed at 10 μM (Y: yes))
4. Phagocytosis (% control) ([2]; BV2, compound 10 uM, pHrodo-myelin): 408.0 % control
phagocytosis in human microglial cells (< 70% control inhibition, > 150% control stimulation) ([7]; HMC3, 10 μM, pHrodo-myelin): stimulatory
4. Phagocytosis (% control) ([7]; HMC3, compound 10 uM, pHrodo-myelin): 146.9 % control
